TGI data for nine compounds are collected here from PubChem BioAssay (NCI).

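Cultured in 96-well plates, cells were exposed to test compound for 48 hours across five concentrations. TGI marks complete inhibition of growth.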

Among the test systems are SW-620 colon; OVCAR-5 ovarian; OVCAR-8 ovarian; M14 melanoma; HCC-2998 colon; SNB-19 CNS; IGROV1 ovarian; TK-10 renal; HS 578T breast; SF-295 CNS; SK-MEL-5 melanoma; 786-0 renal; UACC-257 melanoma; NCI-H23 lung; KM12 colon; UACC-62 melanoma; RXF 393 renal.
Holding throughout (assay): NCI-60 cell line screen, 48 h

Turning to `OC(c1ccc2c(c1)OCO2)c1ccc2c(c1)OCO2`, the TGI with SW-620 colon, with OVCAR-5 ovarian, in the test on OVCAR-8 ovarian, in the test on M14 melanoma, in the test on HCC-2998 colon and in the test with SNB-19 CNS was more than 100 µM throughout. Moreover, the TGI with IGROV1 ovarian, in the test with TK-10 renal, in the test with HS 578T breast, in the test with SF-295 CNS, in the test with SK-MEL-5 melanoma and with 786-0 renal was more than 100 µM each time. The TGI with UACC-257 melanoma, with NCI-H23 lung, in the test on KM12 colon and with UACC-62 melanoma was more than 100 µM each time.

Take `CC1CN(c2cc3c(cc2F)c(=O)c(C(=O)O)cn3-c2ccc(F)cn2)CC(C)N1` (stereo not drawn): the TGI with SW-620 colon, in the test with OVCAR-5 ovarian, in the test with OVCAR-8 ovarian, in the test on M14 melanoma, with RXF 393 renal and in the test with SNB-19 CNS was more than 100 µM in each case. Moreover, the TGI in the test with IGROV1 ovarian, in the test with TK-10 renal, in the test with HS 578T breast, in the test on SF-295 CNS, in the test on 786-0 renal and in the test with UACC-257 melanoma was more than 100 µM each time. In addition, the TGI in the test with NCI-H23 lung, in the test on KM12 colon and in the test with UACC-62 melanoma was more than 100 µM each time.

Turning to `O=C1c2c(ccc3c2CCC3)CC12Cc1ccccc1C2`, the TGI in the test with SW-620 colon was 93.7 µM; in the test on OVCAR-5 ovarian it was more than 100 µM; in the test with OVCAR-8 ovarian it was more than 100 µM; in the test on M14 melanoma, more than 100 µM; in the test with HCC-2998 colon, 89 µM; in the test with RXF 393 renal, 40.4 µM. Besides, the TGI in the test with SNB-19 CNS is more than 100 µM; in the test on IGROV1 ovarian, more than 100 µM; in the test with TK-10 renal it was more than 100 µM; in the test on HS 578T breast, more than 100 µM; in the test on SF-295 CNS it was more than 100 µM; in the test with SK-MEL-5 melanoma it was 24.3 µM. In addition, the TGI in the test with 786-0 renal was 91.5 µM; in the test on UACC-257 melanoma, 57.4 µM; in the test with NCI-H23 lung, more than 100 µM; in the test on KM12 colon it was 51.4 µM.

With `O=c1c(-c2ccccc2F)coc2cc(F)ccc12`, the TGI in the test on SW-620 colon, with OVCAR-5 ovarian, in the test with OVCAR-8 ovarian, with M14 melanoma, with RXF 393 renal and with SNB-19 CNS was more than 100 µM throughout. In addition, the TGI in the test with IGROV1 ovarian, in the test on TK-10 renal, in the test with HS 578T breast, in the test with SF-295 CNS, with SK-MEL-5 melanoma and in the test with 786-0 renal was more than 100 µM in each case. Besides, the TGI in the test on UACC-257 melanoma, with NCI-H23 lung, in the test on KM12 colon and in the test with UACC-62 melanoma was more than 100 µM each time.

As for `CC(C)(C)OC(=O)NCCCC(=O)NC1(c2cc3ccccc3s2)CCCCC1`, the TGI is 52.8 µM in the test with SW-620 colon; 48.3 µM with OVCAR-8 ovarian; 40.1 µM with M14 melanoma; 48.5 µM with HCC-2998 colon; 44.1 µM in the test with RXF 393 renal; more than 100 µM with SNB-19 CNS. Also, the TGI with IGROV1 ovarian came to 46.2 µM; with TK-10 renal, 97.2 µM; in the test with HS 578T breast, 45.8 µM; in the test on SF-295 CNS, 34 µM; in the test on SK-MEL-5 melanoma, 19.9 µM; in the test with 786-0 renal, 37.4 µM. Further, the TGI in the test with UACC-257 melanoma was found to be 31.9 µM; in the test on NCI-H23 lung it was 51 µM; with KM12 colon it was 38.9 µM; in the test with UACC-62 melanoma, 24.3 µM.

With `CN(C)CCNC(=O)Cn1cnc2cccc([N+](=O)[O-])c2c1=O`, the TGI in the test on SW-620 colon, in the test with OVCAR-5 ovarian, in the test on M14 melanoma, in the test with HCC-2998 colon, in the test on RXF 393 renal and with SNB-19 CNS was more than 100 µM in each case. Besides, the TGI with IGROV1 ovarian, in the test on TK-10 renal, with HS 578T breast, in the test with SF-295 CNS, in the test on SK-MEL-5 melanoma and in the test on 786-0 renal was more than 100 µM in each case. Besides, the TGI in the test on UACC-257 melanoma, in the test with NCI-H23 lung, with KM12 colon and with UACC-62 melanoma was more than 100 µM in each case.

For `CC1=NN(c2nc(N)nc(C/C(N)=N/O)n2)C(C)(C)C1`, the TGI in the test with SW-620 colon, in the test with OVCAR-5 ovarian, in the test with OVCAR-8 ovarian, in the test with M14 melanoma, in the test on HCC-2998 colon and in the test on SNB-19 CNS was more than 100 µM throughout. The TGI in the test on IGROV1 ovarian, in the test on TK-10 renal, with HS 578T breast, with SF-295 CNS, in the test with SK-MEL-5 melanoma and in the test on 786-0 renal was more than 100 µM in each case. Besides, the TGI with UACC-257 melanoma, in the test with NCI-H23 lung, with KM12 colon and in the test with UACC-62 melanoma was more than 100 µM in each case.

Take `CCOc1ccccc1-c1nc2c(s1)C(=O)c1ccccc1C2=O`: the TGI amounted to 23.4 µM in the test on SW-620 colon; 40.1 µM in the test with OVCAR-5 ovarian; 36.7 µM in the test on M14 melanoma; 29.5 µM in the test on HCC-2998 colon; 31.5 µM in the test on RXF 393 renal; 65.3 µM with SNB-19 CNS. Also, the TGI was 27.7 µM in the test on IGROV1 ovarian; 34.4 µM in the test on TK-10 renal; 62.3 µM in the test with HS 578T breast; 25.1 µM in the test on SF-295 CNS; 18.7 µM in the test on SK-MEL-5 melanoma; 30.5 µM in the test on 786-0 renal. In addition, the TGI in the test with UACC-257 melanoma amounted to 27.3 µM; in the test on NCI-H23 lung, 31 µM; in the test with KM12 colon, 29.8 µM; in the test with UACC-62 melanoma it was 13.8 µM.

Consider `COc1ccc(C2=C(N)c3ncccc3C2=O)cc1`, for which the TGI in the test on SW-620 colon, in the test with OVCAR-5 ovarian, with OVCAR-8 ovarian, in the test with M14 melanoma, in the test with HCC-2998 colon and with RXF 393 renal was more than 100 µM in each case. Moreover, the TGI with SNB-19 CNS is more than 100 µM; in the test with IGROV1 ovarian, more than 100 µM; in the test with TK-10 renal, more than 10 µM; with HS 578T breast it was more than 100 µM; in the test on SF-295 CNS it was more than 100 µM; in the test with 786-0 renal it was more than 100 µM. For the same compound, the TGI with UACC-257 melanoma was more than 10 µM; in the test on NCI-H23 lung, more than 100 µM; in the test on KM12 colon, more than 100 µM; in the test on UACC-62 melanoma it was more than 100 µM.
